Experimental data from patent publication US11266715B2, “C3A receptor agonists for use against ischemic brain injury, stroke, traumatic brain injury, spinal cord injury and neurodegenerative disorders” (priority 2016, dated 2022).

Tests used:
GFAP = GFAP immunoreactivity in dorsal hippocampus after neonatal HI; type: in vivo, mouse; conditions: P55, 3 days treatment after HI
Method: (§1) On P51 (long-term study) or P55 (short-term study), mice were deeply anesthetized with thiopental [Pentothal Sodium (0.01 ml/g body weight), Hospira, Ill., USA)] and transcardially perfused with 0.9% saline, followed by 4% paraformaldehyde (PFA) in 0.1 M PBS. Brains were removed and post-fixed in 4% PFA at 4° C. for 24 h followed by 70% ethanol for 24 h. Tissue was processed using an automatic tissue processor (SAKURA Tissue Tek VIP 3000, Tournai, Belgium) and embedded in paraffin. Brains were cut at room temperature into 8-μm serial coronal sections using a sliding microtome (Microm HM 450, Thermo Scientific, Massachusetts, USA), attached to silane coated slides and dried at RT. […]
(§2) NeuN positive cells, GFAP positive relative area, as well as GAP-43, SYN, and VGLUT1 positive puncta were counted by using MetaMorph software (ver. 7.8.6, Molecular Devices, CA, USA) on confocal images obtained with a 20× (NeuN and GFAP) or 63× (GAP-43, SYN, and VGLUT1) objective (Carl Zeiss LSM 700 Laser Scanning Microscope, Jena, Germany). Iba-1 positive cell somata were counted on bright field images obtained with a 20× objective (Nikon Eclipse 80i). […]

Iba-1+ cells = experiment: Iba-1 positive cell density in dorsal hippocampus after neonatal HI; type: in vivo, mouse; conditions: P55, 3 days treatment after HI
Method: as §1, §2

Substance: C3a: Purified human C3a peptide (Complement Technologies), C3a receptor agonist, amino acid sequence SEQ ID NO: 1
- GFAP relative area in CA1 and DG (GFAP): did not differ between the hemispheres or in comparison with sham mice
- density of Iba-1+ cells, ipsilateral vs contralateral (Iba-1+ cells): did not differ between the hemispheres
